This assay addresses D(3) dopamine receptor (Rattus norvegicus, UniProt P19020). Description: biochemical.

D(3) dopamine receptor, sequence (P19020 whole entry): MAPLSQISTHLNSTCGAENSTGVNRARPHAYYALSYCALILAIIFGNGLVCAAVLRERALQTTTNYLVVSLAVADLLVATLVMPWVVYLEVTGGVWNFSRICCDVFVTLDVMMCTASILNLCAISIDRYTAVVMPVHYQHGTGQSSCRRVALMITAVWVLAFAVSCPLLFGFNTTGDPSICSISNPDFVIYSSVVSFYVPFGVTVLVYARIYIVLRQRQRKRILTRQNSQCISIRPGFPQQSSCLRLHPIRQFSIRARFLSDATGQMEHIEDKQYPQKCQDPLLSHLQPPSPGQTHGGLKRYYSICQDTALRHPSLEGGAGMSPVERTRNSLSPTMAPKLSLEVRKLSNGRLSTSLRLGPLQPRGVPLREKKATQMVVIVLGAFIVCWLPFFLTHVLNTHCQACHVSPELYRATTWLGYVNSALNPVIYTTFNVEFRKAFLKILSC

With `CCCN(CCC)C1CCc2cccc(O)c2C1` (stereo unspecified) [8-OH-DPAT], the affinity, expressed as Ki, was 248 nM.

(Values after ChEMBL document CHEMBL1126949 (J Med Chem, 1993).)
